Experimental data taken from PubChem BioAssay AID328 (DTP/NCI, 2004).
Values joined by “and” are separate entries in the source; they are usually repeats but may differ in a detail not shown here. Identical values can stand only once. Inconclusive results and toxic doses are left out.

Tested on: BDF1 mice, P388 leukemia ip, median survival T/C
Test: NCI In Vivo Anticancer Drug Screen. Data for tumor model P388 Leukemia (intraperitoneal) in B6D2F1 (BDF1) mice
Conditions: endpoint: median survival time, higher = longer survival
Summary of the method: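 In tumour-bearing mice, survival after compound treatment is set against the vehicle group and given as a quotient.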

[1] = dose: 100.0 mg/kg/injection, schedule: Q01DX009 (ip), vehicle: Klucel (hydroxypropylcellulose) (HPC)
[2] = dose: 100.0 mg/kg/injection, schedule: Q04DX003 (ip), vehicle: Klucel (hydroxypropylcellulose) (HPC)
[3] = dose: 200.0 mg/kg/injection, schedule: Q04DX003 (ip), vehicle: Klucel (hydroxypropylcellulose) (HPC)
[4] = dose: 400.0 mg/kg/injection, schedule: Q04DX003 (ip), vehicle: Klucel (hydroxypropylcellulose) (HPC)
[5] = dose: 50.0 mg/kg/injection, schedule: Q01DX009 (ip), vehicle: saline with Tween-80
[6] = dose: 100.0 mg/kg/injection, schedule: Q01DX009 (ip), vehicle: saline with Tween-80
[7] = dose: 200.0 mg/kg/injection, schedule: Q01DX009 (ip), vehicle: saline with Tween-80
[8] = dose: 25.0 mg/kg/injection, schedule: Q01DX009 (ip), vehicle: saline
[9] = dose: 50.0 mg/kg/injection, schedule: Q01DX009 (ip), vehicle: saline
[10] = dose: 100.0 mg/kg/injection, schedule: Q01DX009 (ip), vehicle: saline
[11] = dose: 200.0 mg/kg/injection, schedule: Q01DX009 (ip), vehicle: saline
[12] = dose: 100.0 mg/kg/injection, schedule: Q04DX003 (ip), vehicle: saline with Tween-80
[13] = dose: 200.0 mg/kg/injection, schedule: Q04DX003 (ip), vehicle: saline with Tween-80
[14] = dose: 400.0 mg/kg/injection, schedule: Q04DX003 (ip), vehicle: saline with Tween-80
[15] = dose: 50.0 mg/kg/injection, schedule: Q04DX003 (ip), vehicle: saline with Tween-80
[16] = dose: 25.0 mg/kg/injection, schedule: Q01DX009 (ip), vehicle: saline with Tween-80

## CC(=O)Nc1ccc(N=Nc2ccccc2)cc1F
[1]
  T/C: 120 % of control
[2]
  T/C: 104 % of control
[3]
  T/C: 108 % of control
dose: 400.0 mg/kg/injection, schedule: Q01DX009 (ip), vehicle: Klucel (hydroxypropylcellulose) (HPC)
  T/C: 120 % of control
[4]
  T/C: 95 % of control

## CCC(=O)/C=C/c1ccc(Cl)cc1
[5]
  T/C: 110 % of control
[6]
  T/C: 109 % of control
[7]
  T/C: 107 % of control

## O=[n+]1ccn2ccccc2c1
[8]
  T/C: 95 % of control
[9]
  T/C: 114 % of control
dose: 65.0 mg/kg/injection, schedule: Q01DX009 (ip), vehicle: saline
  T/C: 95 % of control
dose: 75.0 mg/kg/injection, schedule: Q04DX003 (ip), vehicle: saline
  T/C: 100 % of control
[10]
  T/C: 108 % of control
dose: 150.0 mg/kg/injection, schedule: Q04DX003 (ip), vehicle: saline
  T/C: 90 % of control

## CC(CS(=O)(=O)O)N1CCOCC1 (stereo not drawn)
[10]
  T/C: 91 % of control
dose: 100.0 mg/kg/injection, schedule: Q04DX003 (ip), vehicle: saline
  T/C: 104 % of control
[11]
  T/C: 104 % of control
dose: 200.0 mg/kg/injection, schedule: Q04DX003 (ip), vehicle: saline
  T/C: 100 % of control
dose: 400.0 mg/kg/injection, schedule: Q04DX003 (ip), vehicle: saline
  T/C: 95 % of control

## O=[N+]([O-])c1ccc(/C=C/c2ncccn2)o1
[2]
  T/C: 100 % of control
[3]
  T/C: 100 % of control
[4]
  T/C: 100 % of control

## Cn1cc(NC(=O)c2cc(NC(=O)c3cc(NC=O)cn3C)cn2C)cc1C(=O)NCCC(=N)N
dose: 110.0 mg/kg/injection, schedule: Q04DX003 (ip), vehicle: Klucel (hydroxypropylcellulose) (HPC)
  T/C: 113 % of control
dose: 170.0 mg/kg/injection, schedule: Q04DX003 (ip), vehicle: Klucel (hydroxypropylcellulose) (HPC)
  T/C: 109 % of control
dose: 255.0 mg/kg/injection, schedule: Q04DX003 (ip), vehicle: Klucel (hydroxypropylcellulose) (HPC)
  T/C: 104 % of control

## N\C([S-])=N/N=C\C(=N/N=C(\N)[S-])C(O)C(O)C(O)CO.[Rh+2] (stereo not drawn)
dose: 100.0 mg/kg/injection, schedule: Q01DX001 (ip), vehicle: Klucel (hydroxypropylcellulose) (HPC)
  T/C: 100 % of control
dose: 200.0 mg/kg/injection, schedule: Q01DX001 (ip), vehicle: Klucel (hydroxypropylcellulose) (HPC)
  T/C: 104 % of control
dose: 400.0 mg/kg/injection, schedule: Q01DX001 (ip), vehicle: Klucel (hydroxypropylcellulose) (HPC)
  T/C: 109 % of control

## CN(C)c1ccc(/C=N/NC(N)=S)nc1
dose: 44.0 mg/kg/injection, schedule: Q04DX003 (ip), vehicle: saline with Tween-80
  T/C: 159 % of control
dose: 66.0 mg/kg/injection, schedule: Q04DX003 (ip), vehicle: saline with Tween-80
  T/C: 150 % of control and 163 % of control
[12]
  T/C: 177 % of control
dose: 150.0 mg/kg/injection, schedule: Q04DX003 (ip), vehicle: saline with Tween-80
  T/C: 213 % of control

## Cc1cc(NCCCCNCCCNc2cc(C)nc3cc(N)ccc23)c2ccc(N)cc2n1
dose: 12.5 mg/kg/injection, schedule: Q01DX009 (ip), vehicle: other
  T/C: 155 % of control

## N#C/C(=C/Cc1ccccc1)Nc1ccccc1
[6]
  T/C: 100 % of control
[12]
  T/C: 113 % of control
[7]
  T/C: 115 % of control
[13]
  T/C: 118 % of control
dose: 400.0 mg/kg/injection, schedule: Q01DX009 (ip), vehicle: saline with Tween-80
  T/C: 115 % of control
[14]
  T/C: 104 % of control

## CC1=CC2=NC(=O)C(c3ccccc3)C(=O)N2C=C1 (stereo not drawn)
dose: 25.0 mg/kg/injection, schedule: Q01DX009 (ip), vehicle: Klucel (hydroxypropylcellulose) (HPC)
  T/C: 100 % of control
dose: 25.0 mg/kg/injection, schedule: Q04DX003 (ip), vehicle: Klucel (hydroxypropylcellulose) (HPC)
  T/C: 100 % of control
dose: 50.0 mg/kg/injection, schedule: Q01DX009 (ip), vehicle: Klucel (hydroxypropylcellulose) (HPC)
  T/C: 105 % of control
dose: 50.0 mg/kg/injection, schedule: Q04DX003 (ip), vehicle: Klucel (hydroxypropylcellulose) (HPC)
  T/C: 100 % of control
[1]
  T/C: 115 % of control
[2]
  T/C: 100 % of control
[4]
  T/C: 88 % of control

## CC1CN1P(=O)(OCCC#N)N1CC1C (stereo not drawn)
[8]
  T/C: 115 % of control
[9]
  T/C: 97 % of control
dose: 100.0 mg/kg/injection, schedule: Q04DX003 (ip), vehicle: other
  T/C: 163 % of control
dose: 150.0 mg/kg/injection, schedule: Q01DX009 (ip), vehicle: other
  T/C: 170 % of control
[11]
  T/C: 160 % of control and 203 % of control
dose: 200.0 mg/kg/injection, schedule: Q04DX003 (ip), vehicle: other
  T/C: 227 % of control

## c1cnc2c3c(ccc2c1)CN(C12CC4CC(CC(C4)C1)C2)CO3
dose: 25.0 mg/kg/injection, schedule: Q04DX003 (ip), vehicle: saline with Tween-80
  T/C: 108 % of control
[15]
  T/C: 109 % of control and 113 % of control
[12]
  T/C: 108 % of control

## C=CCNC(=O)C(Br)(CC)CC
dose: 12.5 mg/kg/injection, schedule: Q01DX009 (ip), vehicle: saline
  T/C: 100 % of control
[8]
  T/C: 100 % of control
[9]
  T/C: 88 % of control and 100 % of control

## Clc1ccc(C[P+](c2ccccc2)(c2ccccc2)c2ccccc2)c(Cl)c1
dose: 1.4 mg/kg/injection, schedule: Q01DX009 (ip), vehicle: saline
  T/C: 120 % of control
dose: 7.5 mg/kg/injection, schedule: Q01DX009 (ip), vehicle: saline
  T/C: 115 % of control

## CCCCOC(=O)C(C)OC(=O)Nc1ccccc1 (stereo not drawn)
dose: 100.0 mg/kg/injection, schedule: Q04DX003 (sc), vehicle: olive oil, sesame oil, peanut oil
  T/C: 100 % of control
dose: 200.0 mg/kg/injection, schedule: Q04DX003 (sc), vehicle: olive oil, sesame oil, peanut oil
  T/C: 88 % of control
dose: 400.0 mg/kg/injection, schedule: Q04DX003 (sc), vehicle: olive oil, sesame oil, peanut oil
  T/C: 103 % of control

## CC(O)CC1CCCCN1O (stereo not drawn)
dose: 100.0 mg/kg/injection, schedule: Q04DX002 (ip), vehicle: saline with Tween-80
  T/C: 110 % of control
dose: 200.0 mg/kg/injection, schedule: Q04DX002 (ip), vehicle: saline with Tween-80
  T/C: 101 % of control
dose: 400.0 mg/kg/injection, schedule: Q04DX002 (ip), vehicle: saline with Tween-80
  T/C: 100 % of control

## Cc1ccc(CC(N)c2nn[nH]n2)cc1 (stereo not drawn)
[16]
  T/C: 97 % of control
[5]
  T/C: 105 % of control
[6]
  T/C: 100 % of control

## Cc1ccc(S(=O)(=O)OCCN(CCOS(=O)(=O)c2ccc(C)cc2)c2cc(OCc3ccccc3)cc(OCc3ccccc3)c2)cc1
dose: 1.56 mg/kg/injection, schedule: Q01DX009 (ip), vehicle: water
  T/C: 90 % of control and 99 % of control
dose: 3.12 mg/kg/injection, schedule: Q01DX009 (ip), vehicle: water
  T/C: 93 % of control and 100 % of control
dose: 6.25 mg/kg/injection, schedule: Q01DX009 (ip), vehicle: water
  T/C: 98 % of control and 110 % of control
dose: 12.5 mg/kg/injection, schedule: Q01DX009 (ip), vehicle: water
  T/C: 91 % of control and 100 % of control
dose: 25.0 mg/kg/injection, schedule: Q01DX009 (ip), vehicle: water
  T/C: 93 % of control and 100 % of control
dose: 50.0 mg/kg/injection, schedule: Q04DX003 (ip), vehicle: water
  T/C: 91 % of control
dose: 100.0 mg/kg/injection, schedule: Q01DX009 (ip), vehicle: water
  T/C: 88 % of control
dose: 100.0 mg/kg/injection, schedule: Q04DX003 (ip), vehicle: water
  T/C: 89 % of control
dose: 200.0 mg/kg/injection, schedule: Q04DX003 (ip), vehicle: water
  T/C: 97 % of control
dose: 400.0 mg/kg/injection, schedule: Q04DX003 (ip), vehicle: water
  T/C: 97 % of control

## Cc1ccc(C(=O)NCCCOc2ccc(N)cc2Cl)cc1S(=O)(=O)F
[16]
  T/C: 102 % of control
[5]
  T/C: 111 % of control
[15]
  T/C: 100 % of control
[6]
  T/C: 93 % of control
[12]
  T/C: 92 % of control
[7]
  T/C: 107 % of control
[13]
  T/C: 92 % of control
[14]
  T/C: 90 % of control

## CCOC(=O)C(C)NC(=O)C(C)NC(=O)OCc1ccccc1 (stereo not drawn)
dose: 100.0 mg/kg/injection, schedule: Q01DX009 (ip), vehicle: gum acacia
  T/C: 120 % of control
dose: 100.0 mg/kg/injection, schedule: Q04DX003 (ip), vehicle: gum acacia
  T/C: 95 % of control
dose: 200.0 mg/kg/injection, schedule: Q01DX009 (ip), vehicle: gum acacia
  T/C: 100 % of control
dose: 200.0 mg/kg/injection, schedule: Q04DX003 (ip), vehicle: gum acacia
  T/C: 112 % of control
dose: 400.0 mg/kg/injection, schedule: Q01DX009 (ip), vehicle: gum acacia
  T/C: 95 % of control
dose: 400.0 mg/kg/injection, schedule: Q04DX003 (ip), vehicle: gum acacia
  T/C: 87 % of control
